Experimental data: ChEMBL document CHEMBL1221406, “Germacrane-type sesquiterpenoids from the roots of Valeriana officinalis var. latifolia” (J Nat Prod, 2010)
The source made the active and inactive calls. The calls are words filed in the database; no cut-off is given here.

Target: Acetylcholinesterase (Homo sapiens) (UniProt P22303)
Assay: Inhibition of AchE at 100 uM after 30 mins by Ellman's method

Acetylcholinesterase (Homo sapiens), sequence (P22303 whole entry): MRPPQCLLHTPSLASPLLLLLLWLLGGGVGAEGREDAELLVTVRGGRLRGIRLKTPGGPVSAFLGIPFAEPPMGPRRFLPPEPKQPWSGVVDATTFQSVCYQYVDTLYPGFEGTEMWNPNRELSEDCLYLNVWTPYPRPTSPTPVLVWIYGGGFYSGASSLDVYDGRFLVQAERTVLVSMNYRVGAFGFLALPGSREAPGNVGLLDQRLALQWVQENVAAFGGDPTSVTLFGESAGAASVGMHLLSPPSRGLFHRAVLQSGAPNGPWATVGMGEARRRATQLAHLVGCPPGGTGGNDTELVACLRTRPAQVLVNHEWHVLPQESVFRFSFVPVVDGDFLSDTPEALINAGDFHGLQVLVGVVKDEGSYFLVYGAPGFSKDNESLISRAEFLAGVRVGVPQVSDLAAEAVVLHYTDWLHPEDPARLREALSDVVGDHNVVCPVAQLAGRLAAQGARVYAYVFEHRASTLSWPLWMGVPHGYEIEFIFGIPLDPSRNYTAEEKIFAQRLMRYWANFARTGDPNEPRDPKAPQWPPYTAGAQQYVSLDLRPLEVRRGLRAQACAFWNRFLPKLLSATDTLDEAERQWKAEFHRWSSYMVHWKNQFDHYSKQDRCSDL

SMILES	inhibition
CC(=O)O[C@H]1C[C@@]2(C)O[C@@H]2CC/C(C=O)=C\[C@H]2[C@@H]1C2(C)C	inactive
CC(=O)O[C@H]1C/C(C)=C/CC/C(C(=O)O)=C/[C@@H]2[C@H]1C2(C)C	inactive
CC(=O)OC/C1=C\CC/C(C=O)=C\[C@@H]2[C@@H](CC1)C2(C)C	inactive
C/C1=C\CC/C(C=O)=C\[C@H]2[C@@H](C[C@H]1O)C2(C)C	inactive
C=C1CC[C@H]2[C@@H](/C=C(\C(=O)O)CC[C@@H]1O)C2(C)C	inactive
CC1(C)[C@@H]2CC[C@@]3(C=O)O[C@@H]3CC/C(C=O)=C\[C@@H]21	inactive
C/C1=C\CC/C(C(=O)O)=C/[C@@H]2[C@H](CC1)C2(C)C	inactive
CC1(C)[C@@H]2CC[C@@]3(C)O[C@@H]3CC/C(C=O)=C\[C@@H]21	25.9%
CC(=O)OC[C@@]12CC[C@@H]3[C@H](/C=C(/C=O)CC[C@H]1O2)C3(C)C	inactive
